Laboratory results reported in patent publication US11896678B2, “Compositions and methods for treatment of peroxisome proliferator-activated receptor gamma (PPARG) activated cancer” (THE BROAD INSTITUTE, INC., priority 2017, dated 2024).

How the values were obtained:
bladder cancer = settings: rodents; cited from earlier work
[1] = biological target: T1, PPARG ligand-binding domain (Homo sapiens, UniProt P37231); experiment: TR-FRET PPARG competition binding assay; settings: maximal concentration tested 10 uM
T1 sequence (P37231 238-503 limits assumed): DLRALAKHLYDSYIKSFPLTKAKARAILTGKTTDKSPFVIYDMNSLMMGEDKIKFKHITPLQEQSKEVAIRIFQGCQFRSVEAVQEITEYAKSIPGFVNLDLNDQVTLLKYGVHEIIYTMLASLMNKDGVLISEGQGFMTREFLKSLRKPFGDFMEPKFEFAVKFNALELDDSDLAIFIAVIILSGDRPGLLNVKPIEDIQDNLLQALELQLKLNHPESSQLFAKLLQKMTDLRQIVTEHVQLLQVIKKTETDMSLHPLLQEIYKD
Description: To evaluate binding affinity, a PPARG competition binding assay that measures displacement of a fluorescent PPARG ligand from the PPARG ligand-binding domain was used.
Biochemical Assays: The LanthaScreen TR-FRET PPAR gamma Competitive Binding Assay and LanthaScreen TR-FRET PPAR gamma Coactivator Assay were obtained from ThermoFisher Scientific. Assays were performed according to the manufacturer's protocol. In order to assay inverse-agonism, the Coactivator assay was modified by the use of fluorescently labeled co-repressor peptides (NCoR1 ID2 peptide, SMRT ID2 peptide) to convert from agonist mode (coactivator recruitment) into inverse-agonist mode (corepressor recruitment).

[2] = biological target: T2, PPARG ligand-binding domain - TRAP220/MED1 coactivator peptide (Homo sapiens, UniProt P37231); experiment: TR-FRET coactivator assay, TRAP220/MED1 peptide; type: biochemical
T2 construct: purchased ThermoFisher Scientific
T2 sequence (P37231 238-503 limits assumed): T1 sequence (P37231 238-503 limits assumed)

PPARG = biological target: T3, PPARG (Homo sapiens, UniProt P37231); experiment: RT112/84 FABP4-NLucP reporter gene assay, unstimulated; type: cell-based
T3 construct: endogenous in cells; host or cells: RT112/84 bladder cancer cells (FABP4-NLucP knock-in clone)
T3 sequence (P37231 1-477 isoform P37231-2): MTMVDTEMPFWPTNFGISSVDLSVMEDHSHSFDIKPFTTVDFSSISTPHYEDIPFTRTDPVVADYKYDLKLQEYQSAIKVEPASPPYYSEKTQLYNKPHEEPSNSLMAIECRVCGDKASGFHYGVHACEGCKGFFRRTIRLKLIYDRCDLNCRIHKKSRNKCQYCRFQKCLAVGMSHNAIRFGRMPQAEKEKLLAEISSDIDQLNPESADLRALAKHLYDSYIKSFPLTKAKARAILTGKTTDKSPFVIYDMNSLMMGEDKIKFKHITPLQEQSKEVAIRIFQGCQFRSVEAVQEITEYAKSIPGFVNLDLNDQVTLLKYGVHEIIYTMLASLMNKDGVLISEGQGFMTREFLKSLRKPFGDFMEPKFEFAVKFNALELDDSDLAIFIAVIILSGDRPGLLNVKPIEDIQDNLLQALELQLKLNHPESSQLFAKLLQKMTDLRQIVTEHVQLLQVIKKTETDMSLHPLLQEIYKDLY
Description: Next, a PPARG reporter cell line was engineered to enable higher throughput assays to evaluate PPARG transactivation. Briefly, a destabilized NanoLuc luciferase reporter gene was inserted into the 3′-UTR of the FABP4 gene in the RT112/84 bladder cancer cell line using CRISPR/Cas9 mediated homology-directed repair (FIG. 4A).
RT112-FABP4-NLucP Reporter Gene Assay: Reporter cell line was generated by engineering NanoLuc gene into the 3′ UTR of FABP4 in RT112/84 cells using CRISPR/Cas9 guided genome engineering. Single cell clones were generated and the clone with the widest dynamic range selected for use. Assays were performed by seeding 384-well plates with ˜10,000 cells per well in MEMalpha containing 10% FBS and dosing compounds at indicated concentration using HP D300 digital dispenser (HP/Tecan). 18-24 hours after dosing with compound, cells were assayed using NanoGlo Luciferase Assay Reagent (Promega Madison, WI) and plates were read using EnVision Multilabel Reader (PerkinElmer Waltham, MA).

SMILES | carcinogenic effect, bladder cancer (bladder cancer) | binding to PPARG LBD, competition with fluorescent ligand [1] | effect in coactivator assay [2] | effect on unstimulated reporter (PPARG)
CCc1ccc(CCOc2ccc(CC3SC(=O)NC3=O)cc2)nc1 (stereo not drawn) [pioglitazone] | carcinogenic effect in rodents was also observed |  |  | 
COP(=O)(OC)OC(c1ccc(Cl)cc1)P(=O)(OC)OC (stereo not drawn) [SR202, Mifobate] |  | weak activity | minimal effect | minimal detectable effect
CCCCCOc1cc2c(cc1-c1cc(/C=C/C(=O)O)ccc1O)C(C)(C)CCC2(C)C [UVI3003] |  |  | minimal effect | 
CCC(=O)NC[C@H](Cc1ccc(OCCc2nc(-c3ccccc3)oc2C)cc1)N/C(C)=C\C(=O)c1ccc(C(F)(F)F)cc1 [GW6471] |  |  |  | modest inhibitory effect
